ChEMBL document CHEMBL3991601, “The target landscape of clinical kinase drugs” (Science, 2017)
The source made the active and inactive calls.

What was measured:
[1] = molecular target: Mitotic checkpoint serine/threonine-protein kinase BUB1 (Homo sapiens, UniProt O43683)
[2] = molecular target: T1, Probable ATP-dependent RNA helicase DDX6 (Homo sapiens, UniProt P26196)
T1 sequence (P26196 whole entry): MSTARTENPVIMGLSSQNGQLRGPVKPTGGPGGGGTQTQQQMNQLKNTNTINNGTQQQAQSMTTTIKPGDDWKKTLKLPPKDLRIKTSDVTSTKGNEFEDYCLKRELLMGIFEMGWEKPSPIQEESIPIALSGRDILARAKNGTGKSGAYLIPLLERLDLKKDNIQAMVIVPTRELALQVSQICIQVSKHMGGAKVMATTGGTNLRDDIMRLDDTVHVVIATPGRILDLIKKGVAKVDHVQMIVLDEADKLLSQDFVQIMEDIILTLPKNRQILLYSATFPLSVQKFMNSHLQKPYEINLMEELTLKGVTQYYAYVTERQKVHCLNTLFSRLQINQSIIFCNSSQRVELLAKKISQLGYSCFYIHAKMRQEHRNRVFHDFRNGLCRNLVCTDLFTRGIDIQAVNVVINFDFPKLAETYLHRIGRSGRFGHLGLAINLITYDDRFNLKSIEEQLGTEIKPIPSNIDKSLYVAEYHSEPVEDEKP

[3] = molecular target: Putative heat shock protein HSP 90-beta 2 (Homo sapiens, UniProt Q58FF8)
Sequence of Putative heat shock protein HSP 90-beta 2 (Q58FF8 whole entry): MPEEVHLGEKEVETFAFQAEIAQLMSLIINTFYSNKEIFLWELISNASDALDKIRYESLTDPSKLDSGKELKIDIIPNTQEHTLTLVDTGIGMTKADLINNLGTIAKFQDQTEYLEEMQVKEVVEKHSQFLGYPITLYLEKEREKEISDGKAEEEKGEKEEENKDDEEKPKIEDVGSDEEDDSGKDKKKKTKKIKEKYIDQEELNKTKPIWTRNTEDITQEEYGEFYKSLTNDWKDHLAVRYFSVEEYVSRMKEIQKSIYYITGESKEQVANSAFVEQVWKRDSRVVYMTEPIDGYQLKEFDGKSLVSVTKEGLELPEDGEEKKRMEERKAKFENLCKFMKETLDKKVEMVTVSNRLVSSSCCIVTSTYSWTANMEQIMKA

[4] = molecular target: T2, DNA replication licensing factor MCM4 (Homo sapiens, UniProt P33991)
T2 sequence (P33991 whole entry): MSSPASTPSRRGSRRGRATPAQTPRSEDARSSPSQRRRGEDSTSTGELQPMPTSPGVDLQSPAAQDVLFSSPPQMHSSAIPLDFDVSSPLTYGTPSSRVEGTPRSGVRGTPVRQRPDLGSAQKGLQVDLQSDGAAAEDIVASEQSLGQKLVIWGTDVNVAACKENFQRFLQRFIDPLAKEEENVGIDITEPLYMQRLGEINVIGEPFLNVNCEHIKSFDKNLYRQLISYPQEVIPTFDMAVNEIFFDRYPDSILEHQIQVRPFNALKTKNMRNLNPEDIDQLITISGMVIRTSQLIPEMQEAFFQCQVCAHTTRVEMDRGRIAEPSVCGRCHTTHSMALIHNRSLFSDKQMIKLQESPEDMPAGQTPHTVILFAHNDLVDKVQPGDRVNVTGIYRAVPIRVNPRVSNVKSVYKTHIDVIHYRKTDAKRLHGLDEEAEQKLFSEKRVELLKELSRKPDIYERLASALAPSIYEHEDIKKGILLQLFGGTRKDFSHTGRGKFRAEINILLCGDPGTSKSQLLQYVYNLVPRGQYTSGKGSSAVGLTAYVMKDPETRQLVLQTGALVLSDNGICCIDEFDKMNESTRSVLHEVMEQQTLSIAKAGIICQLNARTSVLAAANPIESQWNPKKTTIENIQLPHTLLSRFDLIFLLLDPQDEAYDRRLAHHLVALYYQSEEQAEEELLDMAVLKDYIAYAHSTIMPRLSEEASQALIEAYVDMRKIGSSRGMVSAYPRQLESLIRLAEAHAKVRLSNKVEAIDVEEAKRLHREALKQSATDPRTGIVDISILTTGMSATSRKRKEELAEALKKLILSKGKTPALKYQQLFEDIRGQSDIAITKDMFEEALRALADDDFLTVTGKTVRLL

Midasin = Midasin (Homo sapiens, UniProt Q9NU22)
[5] = molecular target: T3, Serine/threonine-protein kinase Nek2 (Homo sapiens, UniProt P51955)
T3 sequence (P51955 whole entry): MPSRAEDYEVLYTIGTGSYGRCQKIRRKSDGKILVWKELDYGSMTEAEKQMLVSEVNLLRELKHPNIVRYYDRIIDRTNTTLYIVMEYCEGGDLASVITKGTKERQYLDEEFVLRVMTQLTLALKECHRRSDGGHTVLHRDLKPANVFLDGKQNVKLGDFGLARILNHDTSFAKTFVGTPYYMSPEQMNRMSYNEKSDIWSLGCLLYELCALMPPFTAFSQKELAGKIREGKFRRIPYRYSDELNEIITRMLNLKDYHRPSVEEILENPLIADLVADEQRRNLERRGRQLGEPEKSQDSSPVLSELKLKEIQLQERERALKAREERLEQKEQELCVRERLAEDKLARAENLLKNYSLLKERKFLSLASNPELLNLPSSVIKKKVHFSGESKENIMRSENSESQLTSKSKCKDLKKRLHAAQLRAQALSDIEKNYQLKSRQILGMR

[6] = molecular target: T4, Ras-related protein Rab-27A (Homo sapiens, UniProt P51159)
T4 sequence (P51159 whole entry): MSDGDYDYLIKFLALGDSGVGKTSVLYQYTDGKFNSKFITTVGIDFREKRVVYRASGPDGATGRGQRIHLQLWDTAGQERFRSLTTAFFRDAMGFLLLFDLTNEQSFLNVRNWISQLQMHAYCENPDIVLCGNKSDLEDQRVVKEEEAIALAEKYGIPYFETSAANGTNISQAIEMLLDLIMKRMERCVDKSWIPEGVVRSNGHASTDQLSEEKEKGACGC

[7] = molecular target: Proto-oncogene tyrosine-protein kinase Src (Homo sapiens, UniProt P12931)
Sequence of Proto-oncogene tyrosine-protein kinase Src (P12931 2-536 limits assumed): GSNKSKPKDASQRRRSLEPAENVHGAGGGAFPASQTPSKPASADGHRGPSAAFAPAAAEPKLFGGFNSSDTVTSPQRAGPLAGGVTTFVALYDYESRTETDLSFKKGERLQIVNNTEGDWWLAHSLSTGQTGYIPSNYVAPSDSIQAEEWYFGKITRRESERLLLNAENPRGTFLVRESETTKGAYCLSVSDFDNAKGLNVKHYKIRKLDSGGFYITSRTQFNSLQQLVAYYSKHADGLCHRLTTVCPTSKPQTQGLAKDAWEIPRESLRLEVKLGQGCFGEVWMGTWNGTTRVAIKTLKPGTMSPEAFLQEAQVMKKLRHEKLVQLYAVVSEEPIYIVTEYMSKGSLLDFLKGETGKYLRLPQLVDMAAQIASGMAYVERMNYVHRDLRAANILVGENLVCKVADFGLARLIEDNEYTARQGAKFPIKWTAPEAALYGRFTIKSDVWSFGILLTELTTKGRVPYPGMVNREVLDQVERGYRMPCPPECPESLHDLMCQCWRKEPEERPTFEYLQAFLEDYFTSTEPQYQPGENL

[8] = molecular target: T5, Signal recognition particle receptor subunit alpha (Homo sapiens, UniProt P08240)
T5 sequence (P08240 whole entry): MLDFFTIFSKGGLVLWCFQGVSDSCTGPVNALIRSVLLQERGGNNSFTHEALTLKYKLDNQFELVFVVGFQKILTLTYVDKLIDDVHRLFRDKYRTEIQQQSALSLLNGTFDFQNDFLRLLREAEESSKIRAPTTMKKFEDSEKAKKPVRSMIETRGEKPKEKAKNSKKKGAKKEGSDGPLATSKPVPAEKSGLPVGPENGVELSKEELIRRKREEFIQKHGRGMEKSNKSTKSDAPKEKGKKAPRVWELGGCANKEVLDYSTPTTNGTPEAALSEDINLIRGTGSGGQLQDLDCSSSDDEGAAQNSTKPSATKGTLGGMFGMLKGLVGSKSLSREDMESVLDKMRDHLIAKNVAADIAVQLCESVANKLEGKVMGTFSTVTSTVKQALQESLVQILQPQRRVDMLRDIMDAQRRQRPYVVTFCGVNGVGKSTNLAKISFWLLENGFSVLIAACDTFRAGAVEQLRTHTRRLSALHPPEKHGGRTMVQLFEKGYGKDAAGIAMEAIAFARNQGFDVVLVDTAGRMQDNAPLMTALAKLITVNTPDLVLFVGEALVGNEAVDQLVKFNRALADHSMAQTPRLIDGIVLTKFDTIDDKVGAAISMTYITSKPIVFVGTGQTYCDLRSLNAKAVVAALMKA

Activated CDC42 kinase 1 = Activated CDC42 kinase 1 (Homo sapiens, UniProt Q07912)
Sequence of Activated CDC42 kinase 1 (Q07912 whole entry): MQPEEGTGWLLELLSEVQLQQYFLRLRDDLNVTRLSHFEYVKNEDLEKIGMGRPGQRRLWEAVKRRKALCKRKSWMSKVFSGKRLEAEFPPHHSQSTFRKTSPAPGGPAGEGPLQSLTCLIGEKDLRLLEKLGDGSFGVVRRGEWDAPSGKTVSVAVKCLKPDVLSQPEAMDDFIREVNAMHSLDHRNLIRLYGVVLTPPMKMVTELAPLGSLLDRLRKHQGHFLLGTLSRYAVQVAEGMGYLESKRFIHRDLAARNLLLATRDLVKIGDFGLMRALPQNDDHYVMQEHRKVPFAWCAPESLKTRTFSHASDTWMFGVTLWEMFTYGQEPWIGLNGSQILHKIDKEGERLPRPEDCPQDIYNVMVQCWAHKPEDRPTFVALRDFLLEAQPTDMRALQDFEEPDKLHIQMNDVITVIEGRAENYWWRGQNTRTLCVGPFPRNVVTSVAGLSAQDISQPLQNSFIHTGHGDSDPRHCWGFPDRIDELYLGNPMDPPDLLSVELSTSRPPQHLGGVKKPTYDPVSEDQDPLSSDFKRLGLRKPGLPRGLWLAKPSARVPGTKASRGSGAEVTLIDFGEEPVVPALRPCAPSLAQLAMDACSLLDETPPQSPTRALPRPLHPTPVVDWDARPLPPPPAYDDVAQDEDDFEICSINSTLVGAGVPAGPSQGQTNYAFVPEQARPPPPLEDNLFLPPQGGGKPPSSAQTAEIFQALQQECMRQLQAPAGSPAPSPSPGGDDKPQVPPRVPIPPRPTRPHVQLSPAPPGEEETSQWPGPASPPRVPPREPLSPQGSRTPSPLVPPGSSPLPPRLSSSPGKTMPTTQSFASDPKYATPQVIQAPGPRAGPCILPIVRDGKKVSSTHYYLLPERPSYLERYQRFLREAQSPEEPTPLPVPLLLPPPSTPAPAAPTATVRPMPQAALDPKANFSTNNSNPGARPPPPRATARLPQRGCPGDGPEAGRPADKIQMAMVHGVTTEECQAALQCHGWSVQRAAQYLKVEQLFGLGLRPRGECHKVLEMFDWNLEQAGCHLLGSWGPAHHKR
Also: in the data inactive means no Kd found up to 30 µM.

Sequence of Mitotic checkpoint serine/threonine-protein kinase BUB1 (O43683 whole entry): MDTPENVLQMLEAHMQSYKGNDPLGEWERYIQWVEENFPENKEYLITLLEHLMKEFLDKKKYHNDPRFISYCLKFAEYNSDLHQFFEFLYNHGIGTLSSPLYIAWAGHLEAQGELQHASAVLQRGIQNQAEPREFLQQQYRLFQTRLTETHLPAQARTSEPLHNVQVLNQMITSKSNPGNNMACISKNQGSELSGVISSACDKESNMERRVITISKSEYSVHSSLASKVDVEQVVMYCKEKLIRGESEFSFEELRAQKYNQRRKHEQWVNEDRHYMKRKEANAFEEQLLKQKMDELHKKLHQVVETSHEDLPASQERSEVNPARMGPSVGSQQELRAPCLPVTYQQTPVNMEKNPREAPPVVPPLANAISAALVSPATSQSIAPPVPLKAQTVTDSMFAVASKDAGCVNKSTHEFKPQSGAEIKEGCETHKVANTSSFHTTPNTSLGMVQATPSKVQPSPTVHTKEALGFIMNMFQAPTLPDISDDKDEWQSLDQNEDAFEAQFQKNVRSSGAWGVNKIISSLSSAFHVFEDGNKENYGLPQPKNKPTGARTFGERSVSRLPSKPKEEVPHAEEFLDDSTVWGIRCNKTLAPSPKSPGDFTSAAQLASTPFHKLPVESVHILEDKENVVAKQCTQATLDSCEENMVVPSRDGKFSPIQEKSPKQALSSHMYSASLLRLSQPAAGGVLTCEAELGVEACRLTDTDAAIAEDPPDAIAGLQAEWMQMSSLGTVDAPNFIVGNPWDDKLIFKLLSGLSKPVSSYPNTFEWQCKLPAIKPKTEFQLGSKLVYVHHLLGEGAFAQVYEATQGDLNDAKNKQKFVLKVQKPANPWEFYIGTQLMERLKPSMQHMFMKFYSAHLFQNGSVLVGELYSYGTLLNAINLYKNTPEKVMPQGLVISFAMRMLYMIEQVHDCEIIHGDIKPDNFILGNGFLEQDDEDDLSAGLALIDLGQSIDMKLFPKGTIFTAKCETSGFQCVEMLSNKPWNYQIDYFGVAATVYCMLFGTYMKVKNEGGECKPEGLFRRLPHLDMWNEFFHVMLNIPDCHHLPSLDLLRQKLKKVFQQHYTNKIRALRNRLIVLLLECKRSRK

Row | Structure (SMILES) | Kd [1] | Kd [2] | Kd [3] | Kd [4] | Kd (Midasin) | Kd [5] | Kd [6] | Kd [7] | Kd [8] | Kd (Activated CDC42 kinase 1)
1 | COc1cc2ncnc(Nc3ccc(F)c(Cl)c3)c2cc1NC(=O)/C=C/CN1CCCCC1 [DACOMITINIB ANHYDROUS] | > 30 µM (inactive) | > 30 µM (inactive) | > 30 µM (inactive) | > 30 µM (inactive) | > 30 µM (inactive) | > 30 µM (inactive) | > 30 µM (inactive) | > 30 µM (inactive) | > 30 µM (inactive) | > 30 µM (inactive)
2 | CCc1nc(C(N)=O)c(Nc2ccc(N3CCC(N4CCN(C)CC4)CC3)c(OC)c2)nc1NC1CCOCC1 [GILTERITINIB] | 0.191 µM (active) | > 30 µM (inactive) | > 30 µM (inactive) | > 30 µM (inactive) | > 30 µM (inactive) | 0.247 µM | > 30 µM (inactive) | > 30 µM (inactive) | > 30 µM (inactive) | 3.15 µM (active)
3 | C#Cc1cccc(Nc2ncnc3cc4c(cc23)OCCOCCOCCO4)c1 [ICOTINIB] | 2.91 µM (active) | > 30 µM (inactive) | > 30 µM (inactive) | > 30 µM (inactive) | > 30 µM (inactive) | > 30 µM (inactive) | > 30 µM (inactive) | > 30 µM (inactive) | > 30 µM (inactive) | > 30 µM (inactive)
4 | C=CC(=O)Nc1cc(Nc2nccc(-c3cn(C)c4ccccc34)n2)c(OC)cc1N(C)CCN(C)C [OSIMERTINIB] | > 30 µM (inactive) | > 30 µM (inactive) | > 30 µM (inactive) | > 30 µM (inactive) | > 30 µM (inactive) | > 30 µM (inactive) | > 30 µM (inactive) | > 30 µM (inactive) | > 30 µM (inactive) | > 30 µM (inactive)
5 | FC(F)(F)c1ccc(CNc2ccc(Cc3c[nH]c4ncc(Cl)cc34)cn2)cn1 [PEXIDARTINIB] | > 30 µM (inactive) | > 30 µM (inactive) | > 30 µM (inactive) | > 30 µM (inactive) | > 30 µM (inactive) | > 30 µM (inactive) | > 30 µM (inactive) | > 30 µM (inactive) | > 30 µM (inactive) | > 30 µM (inactive)
6 | COc1ccc2c(OCc3nnc4ccc(-c5ccccc5)nn34)ccnc2c1 [AMG-208] | > 30 µM (inactive) | > 30 µM (inactive) | > 30 µM (inactive) | > 30 µM (inactive) | > 30 µM (inactive) | > 30 µM (inactive) | > 30 µM (inactive) | > 30 µM (inactive) | > 30 µM (inactive) | > 30 µM (inactive)
7 | CCN1CCN(Cc2ccc(Nc3ncc(F)c(-c4cc(F)c5nc(C)n(C(C)C)c5c4)n3)nc2)CC1 [ABEMACICLIB] | > 30 µM (inactive) | > 30 µM (inactive) | > 30 µM (inactive) | > 30 µM (inactive) | > 30 µM (inactive) | > 30 µM (inactive) | > 30 µM (inactive) | > 30 µM (inactive) | > 30 µM (inactive) | > 30 µM (inactive)
8 | COc1cccc2cc(-c3nc([C@H]4CC[C@H](C(=O)O)CC4)n4ncnc(N)c34)[nH]c12 [OSI-027] | > 30 µM (inactive) | > 30 µM (inactive) | > 30 µM (inactive) | > 30 µM (inactive) | > 30 µM (inactive) | > 30 µM (inactive) | > 30 µM (inactive) | > 30 µM (inactive) | > 30 µM (inactive) | > 30 µM (inactive)
9 | O=C(NC[C@H](O)CO)c1ccncc1Nc1ccc(I)cc1F [PIMASERTIB] | > 30 µM (inactive) | > 30 µM (inactive) | > 30 µM (inactive) | > 30 µM (inactive) | > 30 µM (inactive) | > 30 µM (inactive) | > 30 µM (inactive) | > 30 µM (inactive) | > 30 µM (inactive) | > 30 µM (inactive)
10 | c1cc(OCCN2CCCCC2)cc(-c2n[nH]c3ccc(-c4nc[nH]n4)cc23)c1 [CC-401] | > 30 µM (inactive) | > 30 µM (inactive) | > 30 µM (inactive) | > 30 µM (inactive) | > 30 µM (inactive) | > 30 µM (inactive) | > 30 µM (inactive) | > 30 µM (inactive) | > 30 µM (inactive) | > 30 µM (inactive)
11 | O=c1[nH]c([C@@H]2CCCN2)nc2c1oc1ccc(Cl)cc12 | > 30 µM (inactive) | > 30 µM (inactive) | > 30 µM (inactive) | > 30 µM (inactive) | > 30 µM (inactive) | > 30 µM (inactive) | > 30 µM (inactive) | > 30 µM (inactive) | > 30 µM (inactive) | > 30 µM (inactive)
12 | O=S(=O)(c1cccc2c(O)nccc12)N1CCCNCC1 [HYDROXYFASUDIL] | > 30 µM (inactive) | > 30 µM (inactive) | > 30 µM (inactive) | > 30 µM (inactive) | > 30 µM (inactive) | > 30 µM (inactive) | > 30 µM (inactive) | > 30 µM (inactive) | > 30 µM (inactive) | > 30 µM (inactive)
